Measured values taken from US20050256176A1, “Sulphonamide derivatives and their use as tace inhibitors” (priority 2002, published 2005).

Target: T1, proTNF-α convertase enzyme (TACE) (Homo sapiens, UniProt P78536)
T1 construct: a partially purified, isolated enzyme assay, the enzyme being obtained from the membranes of THP-1; endogenous in cells; host or cells: THP-1 cell membranes, partially purified as in Mohler et al. (1994) Nature 370:218-220
Experiment: Isolated enzyme assay, proTNF-α convertase (TACE), fluorescent peptide substrate
Assay type: biochemical
Details: partially purified enzyme from membranes of THP-1; 26° C. for 4 hours; read-out: concentration giving 50% inhibition of TACE
Method: Recombinant human proMMP13 may be expressed and purified as described by Knauper et al. [V. Knauper et al., (1996) […] 271:1544-1550 (1996)]. […] Activity is determined by measuring the fluorescence at λex 328 nm and λem 393 nm. Percent inhibition is calculated as follows: % Inhibition is equal to the [Fluorescenceplus inhibitor−Fluorescencebackground] divided by the [Fluorescenceminus inhibitor−Fluorescencebackground].
The ability of the compounds to inhibit proTNF-α convertase enzyme (TACE) may be assessed using a partially purified, isolated enzyme assay, the enzyme being obtained from the membranes of THP-1 as described by K. M. Mohler et al., (1994) Nature 370:218-220. The purified enzyme activity and inhibition thereof is determined by incubating the partially purified enzyme in the presence or absence of test compounds using the substrate 4′,5′-Dimethoxy-fluoresceinyl Ser.Pro.Leu.Ala.Gln.Ala.Val.Arg.Ser.Ser.Ser.Arg.Cys(4-(3-succinimid-1-yl)-fluorescein)-NH2 in assay buffer (50 mM Tris HCl, pH 7.4 containing 0.1% (w/v) Triton X-100 and 2 mM CaCl2), at 26° C. for 4 hours. The amount of inhibition is determined as for MMP13 except λex 485 nm and λem 538 nm were used. […]

T1 sequence (P78536 215-824): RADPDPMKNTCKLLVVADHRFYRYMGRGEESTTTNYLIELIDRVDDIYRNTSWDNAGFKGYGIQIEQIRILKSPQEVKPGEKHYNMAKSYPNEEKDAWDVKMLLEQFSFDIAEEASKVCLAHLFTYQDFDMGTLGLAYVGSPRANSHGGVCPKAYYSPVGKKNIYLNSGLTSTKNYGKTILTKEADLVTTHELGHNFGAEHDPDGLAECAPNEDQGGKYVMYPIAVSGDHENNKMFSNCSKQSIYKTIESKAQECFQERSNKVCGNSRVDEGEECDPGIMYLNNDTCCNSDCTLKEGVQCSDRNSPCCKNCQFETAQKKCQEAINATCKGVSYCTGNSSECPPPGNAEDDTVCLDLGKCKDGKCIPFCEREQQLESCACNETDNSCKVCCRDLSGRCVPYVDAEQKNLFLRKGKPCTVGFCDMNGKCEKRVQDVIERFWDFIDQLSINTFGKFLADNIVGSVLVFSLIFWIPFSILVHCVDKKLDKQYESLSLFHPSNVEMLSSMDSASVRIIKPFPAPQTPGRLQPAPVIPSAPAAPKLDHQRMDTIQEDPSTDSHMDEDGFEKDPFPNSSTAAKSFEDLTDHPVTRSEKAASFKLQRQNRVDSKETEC

SMILES	IC50
Cc1cc(COc2ccc(NS(=O)(=O)CC3(C)NC(=O)NC3=O)cc2)c2ccccc2n1 (centres unmarked) [Example 1A, 1-(4-methyl-2,5-dioxoimidazolidin-4-yl)-N-{4-[(2-methylquinolin-4-yl)methoxy]phenyl}methanesulphonamide]	0.071 µM
CCC1(CS(=O)(=O)Nc2ccc(OCc3cc(C)nc4ccccc34)cc2)NC(=O)NC1=O (centres unmarked) [Example 2A, 1-(4-ethyl-2,5-dioxoimidazolidin-4-yl)-N-{4-[(2-methylquinolin-4-yl)methoxy]phenyl}methanesulphonamide]	0.037 µM
